Source: patent US20020026945A1, “Enhancement of photodynamic therapy by anti-angiogenic treatment” (priority 2000, published 2002)
Residues, ends and D or L forms follow the SMILES beside them.

Key:
[1] = in vivo; cited from earlier work
VEGF [2] = settings: preclinical studies; cited from earlier work
BA mammary carcinomas = test: In-vivo PDT tumor treatment, tumor cures; set-up: species or system C3H/HeJ mice; settings: for tumor cures or tumor regression / tumor growth parameters: anti-angiogenic treatment alone, daily IP for 10 days, no PDT; for tumor cures: single PDT (PH 5 mg/kg, 200 J/cm^2) plus daily IP injections for 10 days (EMAP-II 50 μg/kg, IM862 25 mg/kg), disease free at least 40 days
Method: BA mouse mammary carcinoma cells (originally obtained from the NIH tumor bank) were used in all in-vitro and in-vivo experiments (17). Cells were grown as a monolayer in RPMI 1640 media supplemented with 10% fetal calf serum (FCS) and antibiotics. The plating efficiency for the BA cells ranged from 40-60%. Subcutaneous BA mammary carcinomas were generated by trocar injection of 1-mm^3 pieces of tumor to the hind right flank of 8-12 week old female C3H/HeJ mice (17).
In-vivo photodynamic therapy tumor treatments were performed as previously reported on tumors measuring 6-7 mm in diameter (17). Briefly, photodynamic therapy procedures included an i.v. injection of PH (5 mg/kg) followed 24 h later with non-thermal laser tumor irradiation using an argon pumped dye laser emitting red light at 630 nm. A light dose rate of 75 mW/cm^2 and a total light dose of 200 J/cm^2 were used for all in-vivo PDT treatments. Following treatment, tumors were measured 3 times per week. Cures were defined as being disease free for at least 40 days following photodynamic therapy (17). Anti-angiogenic treatment was performed using either EMAP-II or IM862. Each compound was administered as daily IP injections for 10 consecutive days starting 1 h prior to photodynamic therapy light treatment. Individual IM862 doses were 25 mg/kg and individual EMAP-II doses were 50 μg/kg. Tumor tissue hypoxia was induced in selected experiments by clamping lesions for 45 minutes. Statistical analysis was performed using the X^2 test for evaluation of tumor cure rates.
A photodynamic therapy procedure, which produced a moderate cure rate alone, was used to measure positive or negative changes in tumor response when a single photodynamic therapy treatment was combined with daily injections of EMAP-II or IM862 for 10 days (17).

[3] = system: AIDS associated Kaposi's sarcoma; settings: intranasal administration; reference 16; cited from earlier work
tumor cells = settings: cited from earlier work
VEGF [4] = test: VEGF ELISA of tumor extracts after PDT; format: in vivo, mouse; settings: PDT plus 2 doses of agent versus PDT alone; tumors collected 24 hr after PDT
Method: Tumor bearing mice received either no treatment (Control), photodynamic therapy alone, or photodynamic therapy plus 2 injections of either EMAP-II or IM862 (1 hr prior to photodynamic therapy and 23 hr after photodynamic therapy). Tumor samples were collected 24 hr after PDT and assayed for VEGF expression using a commercial ELISA assay kit. Each group represents the mean ± SE of 6 individual tumor samples.
(§1) In-vivo photodynamic therapy tumor treatments were performed as previously reported on tumors measuring 6-7 mm in diameter (17). Briefly, photodynamic therapy procedures included an i.v. injection of PH (5 mg/kg) followed 24 h later with non-thermal laser tumor irradiation using an argon pumped dye laser emitting red light at 630 nm. A light dose rate of 75 mW/cm^2 and a total light dose of 200 J/cm^2 were used for all in-vivo PDT treatments. Following treatment, tumors were measured 3 times per week. Cures were defined as being disease free for at least 40 days following photodynamic therapy (17). Anti-angiogenic treatment was performed using either EMAP-II or IM862. […]
A Quantikine M mouse VEGF ELISA kit (R&D Systems, Minneapolis, Minn.) was used to quantify VEGF levels in cell culture media as well as in tumor extracts from control and treated mice. […]
The effects of the anti-angiogenic derivatives on photodynamic therapy induced VEGF levels were analyzed in the treated tumors. […]

xenograft models = settings: in vivo; cited from earlier work
angiogenesis = settings: preclinical studies; cited from earlier work
VEGF [5] = test: VEGF ELISA of culture media of BA mammary carcinoma cells; format: cell-based, mouse; settings: in-vitro PDT, PH 25 μg/ml, 210 J/m^2, measured 24 hr after treatment
VEGF [6] = test: Western immunoblot of VEGF in treated tumors; set-up: species or system C3H mice; settings: tumor lysates collected 24 hours after in-vivo PDT
Method: (§2) In FIG. 1A, tumors were collected immediately following treatment and evaluated for HIF-1α expression by Western immunoblot analysis. HIF-1α was not detectable in control tumors measuring 6-7 mm in diameter. […] In FIG. 1B, separate tumors were collected 24 hr after photodynamic therapy or clamping (45 min) and assayed for VEGF expression by Western immunoblot analysis. Expression of actin was used to monitor protein loading.
as §1
(§3) Tumors were collected at various times after treatment, homogenized with a polytron in 1X reporter lysis buffer (Promega, Wis.) and evaluated for protein expression as described previously (18). […]

HIF-1α = test: Western immunoblot of HIF-1α in treated tumors; format: in vivo, C3H mice
Method: as §2, §1, §3

vessel ingrowth = settings: experimental angiogenesis models and primary tumors; cited from earlier work
[7] = in vivo; cited from earlier work; remark: listed apart in the source
tumor growth = settings: reference 15; cited from earlier work
[8] = system: growing capillary endothelial cells; settings: time and dose dependent; reference 15; cited from earlier work

Molecule | safety and tolerability [1] | VEGF production in monocytic lineage cells (VEGF [2]) | tumor cures or tumor regression (BA mammary carcinomas) | tumor growth parameters (BA mammary carcinomas) | tumor cures (BA mammary carcinomas) | antitumor activity in patients [3] | direct cytotoxic effect on tumor cells (tumor cells) | VEGF levels in PDT treated tumors (ELISA) (VEGF [4]) | tumor growth in xenograft models (xenograft models) | angiogenesis in chorioallantoic membrane assays (angiogenesis) | VEGF levels in culture media (VEGF [5]) | VEGF expression within treated lesions (Western) (VEGF [6]) | cure rate (BA mammary carcinomas; photodynamic therapy alone (PH 5 mg/kg i.v., 630 nm, 200 J/cm^2), cure = disease free for at least 40 days) | HIF-1α expression (Western) (HIF-1α; PDT (PH 5 mg/kg; 200 J/cm^2), tumors collected immediately following treatment) | time after photodynamic therapy at which HIF-1α expression is observed (HIF-1α; PDT of BA tumors in C3H mice) | vessel ingrowth (vessel ingrowth) | toxicity in normal organs [7] | tumor growth (tumor growth) | apoptosis in growing capillary endothelial cells [8]
N[C@@H](CCC(=O)O)C(=O)N[C@@H](Cc1c[nH]c2ccccc12)C(=O)O [IM862, L-glutamyl-L-tryptophan] (H-Glu-Trp-OH) | safe and well tolerated | inhibits VEGF production | did not produce any tumor cures or tumor regression | only slightly modified tumor growth parameters | 78% | exhibits antitumor activity | no direct cytotoxic effect | decrease in VEGF levels | inhibits tumor growth | inhibits angiogenesis |  |  |  |  |  |  |  |  | 
Photofrin porfimer sodium |  |  |  |  |  |  |  |  |  |  | modestly increase in VEGF levels | induced significant increases in VEGF expression | 39% | induced HIF-1α expression | ≤ 5 min |  |  |  | 
EMAP-II: recombinant single chain polypeptide which inhibits tumor growth and has anti-angiogenic activity (protein, UniProt Q12904 147-312, looked up, Endothelial monocyte-activating polypeptide 2) Endothelial …: SKPIDVSRLDLRIGCIITARKHPDADSLYVEEVDVGEIAPRTVVSGLVNHVPLEQMQNRMVILLCNLKPAKMRGVLSQAMVMCASSPEKIEILAPPNGSVPGDRITFDAFPGEPDKELNPKKKIWEQIQPDLHTNDECVATYKGVPFEVKGKGVCRAQTMSNSGIK |  |  | did not produce any tumor cures or tumor regression | only slightly modified tumor growth parameters | 89% |  |  | statistically significant decrease |  |  |  |  |  |  |  | prevents vessel ingrowth | does not induce toxicity | inhibits tumor growth | induces apoptosis
